The results in this text go back to US20160297761A1, “NOVEL INHIBITORS OF GLUTAMINASE” (RHIZEN PHARMACEUTICALS SA, priority 2014, published 2016).

Like-named read-outs stand apart in the source and are kept apart here.

Usually inhibition stands for the share of the control response that was lost under treatment. One may read the melting point as the temperature, or range, at which the solid turns liquid. The term GI50 denotes the concentration that inhibits growth by half.

The target of data set [1] is T1, L-glutaminase present in mice brain homogenate (Glutaminase(Brain)) (Mus musculus, UniProt D3Z7P3).
T1 sequence (D3Z7P3 55-674): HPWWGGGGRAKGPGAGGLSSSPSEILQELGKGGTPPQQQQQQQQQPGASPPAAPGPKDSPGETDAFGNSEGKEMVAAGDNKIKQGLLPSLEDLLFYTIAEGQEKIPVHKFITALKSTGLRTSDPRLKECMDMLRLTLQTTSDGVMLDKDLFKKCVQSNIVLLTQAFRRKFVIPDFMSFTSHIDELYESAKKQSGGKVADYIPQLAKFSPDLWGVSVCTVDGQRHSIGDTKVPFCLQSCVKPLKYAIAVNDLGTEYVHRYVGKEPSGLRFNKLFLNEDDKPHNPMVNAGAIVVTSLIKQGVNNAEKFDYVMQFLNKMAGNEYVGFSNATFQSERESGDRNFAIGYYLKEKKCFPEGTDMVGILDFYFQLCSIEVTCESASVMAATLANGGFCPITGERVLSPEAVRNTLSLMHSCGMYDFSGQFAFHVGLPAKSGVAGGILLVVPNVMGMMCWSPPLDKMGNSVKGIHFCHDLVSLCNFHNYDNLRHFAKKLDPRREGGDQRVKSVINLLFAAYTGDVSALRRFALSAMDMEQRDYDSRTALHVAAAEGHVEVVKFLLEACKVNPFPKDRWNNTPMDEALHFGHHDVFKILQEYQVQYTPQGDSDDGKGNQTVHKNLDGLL
The data set can be described thus: Glutaminase enzyme activity using glutaminase enzyme from mice brain/kidney homogenate (Nessler's reagent, ammonia). The format is biochemical. The following applies: for inhibition at 0.1 µM: read-out: Glutaminase(Brain) activity % inhibition 0.1 μM; for inhibition at 1 µM: read-out: Glutaminase(Brain) activity % inhibition @1 μM. As to the method:
Assay 3: Determination of Glutaminase Enzyme Activity Using Glutaminase
Enzyme from Mice Brain/Kidney
Step 1: Preparation of Tissue Homogenates: Male Balb/c mice were administered 0.28 M ammonium chloride in drinking water for 7 days. The animals were sacrificed and brain/kidney organs collected on dry ice. […] The tissue was homogenized and supernatants were stored at −80° C. until the enzyme assay was performed.
Aim: Compounds were assessed for their ability to inhibit the enzymatic activity of L-glutaminase present in mice brain/kidney homogenate.
Protocol: The assay was performed using a colorimetric method using Nessler's Reagent by quantifying the amount of ammonia formed as a by product during the enzymatic conversion of L-glutamine to glutamate. In the routine assay, 16 μl of tissue homogenate is added to 33 μl of Tris-Hcl phosphate buffer (pH 8) along with 1 μl of DMSO/test compound containing the desired final concentration and vortexed briefly. 50 μl of 20 mM L-glutamine Tris buffer is added to start the reaction and incubated for 15 minutes at 37° C. The ammonia formed is detected by adding 20 μl of reaction mixture to cold water in a 96 well plate followed by 20 μl of Nessler's reagent. The colour developed is measured at 450 nm. Data Analysis: Activity of the test compound is reported as % inhibition and the data is analyzed using Graphpad Prism (Graphpad software; San Diego Calif.) for IC50 determination.

The subject of another data set is cancer cell lines. The data set can be described thus: In vitro cell proliferation assay in cancer cell lines (MTT dye reduction, 72 h). The following applies: cancer cell line not named, 10% FBS media. The data set is classed as cell-based. As to the method: Assay 4: In Vitro Cell Proliferation Assay in Cancer Cell Lines
Growth inhibition assays were carried out using 10% FBS supplemented media. Cells were seeded at a concentration of 5000-20,000 cells/well in a 96-well plate. Test compounds at a concentration range from 0.01 to 10000 nM were added after 24 hours. Growth was assessed using the 3-[4,5-dimethylthiazol-2-yl]-2,5-diphenyltetrazolium bromide (MIT) dye reduction test at 0 h (prior to the addition of the test compound) and 72 hours after the addition of test compound. Absorbance was read on a Fluostar Optima (BMG Labtech, Germany) at a wave length of 450 nm. Data were analysed using GraphPad Prism and percent inhibition due to the test compound compared to the control was calculated accordingly.
For orientation: Tetrazolium dyes change colour on reduction, which living cells bring about.

The molecule `O=C(Cc1cccc(OC(F)(F)F)c1)Nc1nnc(CC2CCC(Cc3nnc(NC(=O)Cc4ccccn4)s3)CC2)s1` (stereo not shown) [Example-105, 2-(Pyridin-2-yl)-N-(5-((4-((5-(2-(3-(trifluoromethoxy)phenyl)acetamido)-1,3,4-thiadiazol-2-yl)methyl)cyclohexyl)methyl)-1,3,4-thiadiazol-2-yl)acetamide] returned a melting point of 278 to 280 °C. In data set [1] (0.1 μM, mice brain homogenate), the inhibition at 0.1 µM was less than 25%. Moreover, the inhibition at 1 µM in data set [1] (mice brain homogenate) is less than 25%.

As to `Cc1nc(NC(=O)Cc2cccc(OC(F)(F)F)c2)ccc1CCCCc1nnc(NC(=O)Cc2ccccn2)s1` [Example-9, N-(6-Methyl-5-(4-(5-(2-(pyridin-2-yl)acetamido)-1,3,4-thiadiazol-2-yl)butyl)pyridin-2-yl)-2-(3-(trifluoromethoxy)phenyl)acetamide], the melting point fell in the range of 96 to 101 °C. For the same molecule, the inhibition at 0.1 µM in data set [1] (0.1 μM, mice brain homogenate) is less than 25%. For the same molecule, the inhibition at 1 µM in data set [1] (mice brain homogenate) is less than 25%.

`O=C(Cc1cccc(OC(F)(F)F)c1)Nc1ccc(CCCCc2ccc(NC(=O)Cc3cccc(OC(F)(F)F)c3)nc2)cn1` [Example-40, N,N′-(5,5′-(Butane-1,4-diyl)bis(pyridine-5,2-diyl))bis(2-(3-(trifluoromethoxy)phenyl)acetamide)]: the melting point fell in the range of 153 to 155 °C. The inhibition at 0.1 µM in data set [1] (0.1 μM, mice brain homogenate) was less than 25%. The inhibition at 1 µM in data set [1] (mice brain homogenate) is less than 25%.

Take `O=C(Cc1cccc(OC(F)(F)F)c1)Nc1nnc(CC2CCC(Cc3nnc(NC(=O)Cc4cccc(OC(F)(F)F)c4)s3)CC2)s1` (stereo not shown) [Example-104, N,N′-(5,5′-(cyclohexane-1,4-diylbis(methylene))bis(1,3,4-thiadiazole-5,2-diyl))bis(2-(3-(trifluoromethoxy)phenyl)acetamide)]: the melting point was in the range of 240 to 244 °C. The inhibition at 0.1 µM in data set [1] (0.1 μM, mice brain homogenate) was less than 25%. The inhibition at 1 µM in data set [1] (mice brain homogenate) is less than 25%.

`O=C(Cc1cccnc1)Nc1nnc(CCCCc2ccc(NC(=O)Cc3cccc(OC(F)(F)F)c3)c(F)c2)s1` [Example-42, N-(5-(4-(3-Fluoro-4-(2-(3-(trifluoromethoxy)phenyl)acetamido)phenyl)butyl)-1,3,4-thiadiazol-2-yl)-2-(pyridin-3-yl)acetamide] gave a melting point of 176 to 180 °C. Moreover, the inhibition at 0.1 µM in data set [1] (0.1 μM, mice brain homogenate) was less than 25%. For the same molecule, the inhibition at 1 µM in data set [1] (mice brain homogenate) was less than 25%.

With `O=C(Cc1cccnc1)Nc1nnc(CC2CCC(Cc3nnc(NC(=O)Cc4cccnc4)s3)CC2)s1` (stereo not shown) [Example-103, N,N′-(5,5′-(cyclohexane-1,4-diylbis(methylene))bis(1,3,4-thiadiazole-5,2-diyl))bis(2-(pyridin-3-yl)acetamide)], the melting point was in the range of 268 to 270 °C. Further, in data set [1] (0.1 μM, mice brain homogenate), the inhibition at 0.1 µM lay within 25 to 50%. In addition, the inhibition at 1 µM in data set [1] (mice brain homogenate) was in the range of 25 to 50%.

`O=C(Cc1cccnc1)Nc1nnc(C2CCC(c3nnc(NC(=O)Cc4cccnc4)s3)CC2)s1` (stereo not shown) [Example-102, N,N′-(5,5′-(cyclohexane-1,4-diyl)bis(1,3,4-thiadiazole-5,2-diyl))bis(2-(pyridin-3-yl)acetamide)] displayed a melting point of 180 to 182 °C. In addition, the inhibition at 0.1 µM in data set [1] is less than 25%.

`O=C(Cc1cccc(OC(F)(F)F)c1)Nc1ccc(CCCCc2nnc(NC(=O)Cn3cccn3)s2)cn1` [Example-27, N-(5-(4-(5-(2-(1H-pyrazol-1-yl)acetamido)-1,3,4-thiadiazol-2-yl)butyl)pyridin-2-yl)-2-(3-(trifluoromethoxy)phenyl)acetamide] displayed a melting point of 174 to 178 °C. Also, in data set [1] (0.1 μM, mice brain homogenate), the inhibition at 0.1 µM is less than 25%. The inhibition at 1 µM in data set [1] (mice brain homogenate) fell in the range of 50 to 75%. The molecule also had a GI50 in the data set with cancer cell lines of 5 to 10 µM.

The molecule `O=C(Cc1ccncc1)Nc1ccc(CCCCc2nnc(NC(=O)Cc3cccc(OC(F)(F)F)c3)s2)cn1` [Example-22, 2-(Pyridin-4-yl)-N-(5-(4-(5-(2-(3-(trifluoromethoxy)phenyl)acetamido)-1,3,4-thiadiazol-2-yl)butyl)pyridin-2-yl)acetamide] showed a melting point of 135 to 137 °C. Further, in data set [1] (0.1 μM, mice brain homogenate), the inhibition at 0.1 µM is less than 25%. The inhibition at 1 µM in data set [1] (mice brain homogenate) lay within 50 to 75%. The same molecule displayed a GI50 in the data set on cancer cell lines of 1 to 5 µM.

For `Cc1ccc(F)c(C(=O)Nc2nnc(CCCCc3ccc(NC(=O)Cc4cccc(OC(F)(F)F)c4)nc3)s2)n1` [Example-37, 3-Fluoro-6-methyl-N-(5-(4-(6-(2-(3-(trifluoromethoxy)phenyl)acetamido)pyridin-3-yl)butyl)-1,3,4-thiadiazol-2-yl)picolinamide], the melting point is 130 to 133 °C. The inhibition at 0.1 µM in data set [1] (0.1 μM, mice brain homogenate) is less than 25%. Moreover, in data set [1] (mice brain homogenate), the inhibition at 1 µM is less than 25%.

`O=C(Cc1ccccc1)Nc1nnc(C2CCC(c3nnc(NC(=O)Cc4ccccc4)s3)CC2)s1` (stereo not shown) [Example-101, N,N′-(5, 5′-(cyclohexane-1,4-diyl)bis(1,3,4-thiadiazole-5,2-diyl))bis(2-phenylacetamide)] showed a melting point of 281 to 283 °C.

Take `O=C(Cc1cccc(OC(F)(F)F)c1)Nc1ccc(CCCCc2nnc(NC(=O)Cc3cccnc3)s2)cn1` [Example-10, 2-(Pyridin-3-yl)-N-(5-(4-(6-(2-(3-(trifluoromethoxy)phenyl)acetamido)pyridin-3-yl)butyl)-1,3,4-thiadiazol-2-yl)acetamide]: the melting point fell in the range of 176 to 178 °C. In data set [1] (0.1 μM, mice brain homogenate), the inhibition at 0.1 µM fell in the range of 75 to 100%. Further, the inhibition at 1 µM in data set [1] (mice brain homogenate) lay in the range of 75 to 100%.

The molecule `CC(Cl)C(=O)Nc1nnc(CCCCc2ccc(NC(=O)Cc3cccc(OC(F)(F)F)c3)nc2)s1` (stereo not shown) [Example-23, 2-Chloro-N-(5-(4-(6-(2-(3-(trifluoromethoxy)phenyl)acetamido)pyridin-3-yl)butyl)-1,3,4-thiadiazol-2-yl)propanamide] returned a melting point of 132 to 134 °C. The inhibition at 0.1 µM in data set [1] (0.1 μM, mice brain homogenate) was less than 25%. In addition, the inhibition at 1 µM in data set [1] (mice brain homogenate) is less than 25%. For the same molecule, the GI50 in the data set on cancer cell lines lay within 5 to 10 µM.

With `O=C(Cc1ccccn1)Nc1ccc(CCCCc2nnc(NC(=O)Cc3cccc(OC(F)(F)F)c3)s2)cn1` [Example-8, 2-(Pyridin-2-yl)-N-(5-(4-(5-(2-(3-(trifluoromethoxy)phenyl)acetamido)-1,3,4-thiadiazol-2-yl)butyl)pyridin-2-yl)acetamide], the melting point fell in the range of 176 to 178 °C. Also, the inhibition at 0.1 µM in data set [1] (0.1 μM, mice brain homogenate) fell in the range of 25 to 50%. In addition, in data set [1] (mice brain homogenate), the inhibition at 1 µM lay within 50 to 75%. Besides, in the data set on cancer cell lines, the 50% growth inhibitory concentration (GI50) is less than 0.1 µM.

The molecule `O=C(Cc1ccccn1)Nc1nnc(CCCCc2ccc(NC(=O)Cc3cccc(OC(F)(F)F)c3)c(F)c2)s1` [Example-41, N-(5-(4-(3-Fluoro-4-(2-(3-(trifluoromethoxy)phenyl)acetamido)phenyl)butyl)-1,3,4-thiadiazol-2-yl)-2-(pyridin-2-yl)acetamide] returned a melting point of 164 to 168 °C. Also, the inhibition at 0.1 µM in data set [1] (0.1 μM, mice brain homogenate) was less than 25%. For the same molecule, in data set [1] (mice brain homogenate), the inhibition at 1 µM is less than 25%.
